Measurements taken from ChEMBL document CHEMBL5154647, “Discovery of seneciobipyrrolidine derivatives for the amelioration of glucose homeostasis disorders through 4E-BP1/Akt/AMPK signaling activation” (Eur J Med Chem, 2022).

Tests used:
L6 [1] = experiment: Induction of glucose uptake in rat L6 myoblasts at 20 uM measured after 2 hrs by liquid scintillation counter; format: functional
L6 [2] = experiment: Induction of glucose uptake in rat L6 myoblasts assessed as 2-DG concentration at 25 uM preincubated for 3 hrs and in presence of 2-deoxyglucose measured after 1 hrs by DNTB reagent based colorimetric assay; format: functional; details: time 4 hrs
[3] = Microsomal stability in monkey liver microsomes assessed as half life preincubated with NADPH measured upto 60 mins by LC-MS analysis; format: ADME, Macaca mulatta, Microsome; details: rhesus monkey
[4] = Microsomal stability in mouse liver microsomes assessed as half life preincubated with NADPH measured upto 60 mins by LC-MS analysis; format: ADME, Microsome
L6 [5] = experiment: Induction of glucose uptake in rat L6 myoblasts at 3 uM measured after 2 hrs by liquid scintillation counter; format: functional

Compound | Activity (L6 [1]) | also measured
COc1ccc(N2CC[C@@H]3[C@@H]4CCCN4c4ccc(OC)cc4[C@@H]32)cc1 (racemic) | 46.2% | 
Cc1ccc(N2CC[C@@H]3[C@H]4CCCN4c4ccc(C)cc4[C@@H]32)cc1 (racemic) | 130.9% | Activity (L6 [2]): 13.1 pmol/µL
COc1cc2c(cc1OC)N1CCC[C@@H]1[C@H]1CCN(Cc3ccc(C)cc3)[C@@H]21 (racemic) | 34.2% | 
COc1ccc2c(c1)[C@H]1[C@H](CCN1Cc1ccc(C)cc1)CN2C (racemic) | 80.6% | 
COc1ccc(N2CC[C@@H]3[C@H]4CCCN4c4ccc(OC)cc4[C@@H]32)cc1 (racemic) | 142.6% | 
COc1ccc2c(c1)[C@H]1[C@H](CCN1C(=O)Cc1ccc(Cl)cc1)[C@H]1CCCN21 (racemic) | 98.1% | Activity (L6 [2]): 33.1 pmol/µL
COc1ccc2c(c1)[C@H]1[C@H](CCN1CCc1ccc(C)cc1)[C@H]1CCCN21 (racemic) | 86.3% | 
COc1ccccc1N1CC[C@@H]2[C@H]3CCCN3c3c(OC)cccc3[C@@H]21 (racemic) | 109.5% | 
COc1ccc2c(c1)[C@H]1[C@H](CCN1Cc1ccc(Cl)cc1)[C@H]1CCCN21 (racemic) | 22.3% | 
NC(=O)Cc1ccc(N2CC[C@@H]3[C@H]4CCCN4c4ccc(CC(N)=O)cc4[C@@H]32)cc1 (racemic) |  | half-life [3]: 34.7 min; half-life [4]: 188 min
Fc1ccc(N2CC[C@@H]3[C@@H]4CCCN4c4ccc(F)cc4[C@@H]32)cc1 (racemic) | 58.3% | 
COc1cc(C[C@H]2C(=O)OC[C@@H]2Cc2ccc(OC)c(OC)c2)ccc1O [ARCTIGENIN] |  | Activity (L6 [5]): 146%; Activity (L6 [2]): 23.5 pmol/µL
COc1cccc(N2CC[C@@H]3[C@H]4CCCN4c4cc(OC)ccc4[C@@H]32)c1 (racemic) | 22.4% | 
Cc1ccc(CN2CC[C@@H]3[C@H]4CCCN4c4ccc(C)cc4[C@@H]32)cc1 (racemic) | 149.2% | Activity (L6 [2]): 59.6 pmol/µL
